“Also recorded” adds a separate entry of the source.
Tests used:
Format in all cases: cell-based, cow
mammary epithelial cells [1] = test: Fatty acid distribution between triglyceride and phospholipid fractions (TLC and gas chromatography) after 24 h progesterone
Experimental: (§1) Lipids were extracted by the Folch protocol. Briefly, each cell sample was incubated for 1 h with “Folch mixture” (chloroform:methanol, […] volumetric ratio). The organic phase was separated by addition of double-distilled water (DDW) and overnight incubation at 4° C. The upper phase was then removed, and the lower phase filtered through glass wool. The lower phase was evaporated under nitrogen and then dissolved in chloroform:methanol (3:97). Samples were kept at −20° C. until further analysis.
Lipid separation was performed by thin-layer chromatography and gas chromatography analysis. For the thin-layer chromatography, silica gel was spread on glass plates and activated at 105° C., 24 h before the analysis. After cooling, the cell samples, extracted by Folch protocol, were loaded into the plates along with triglyceride (Tg) and phospholipids (PL) standards. The plates were inserted into a tank with a mixture of petroleum ether, […] and acetic acid (8:2:1 volometric ratio) for 30 min, then sprayed with 0.05% v/v dichlorofluorescein in ethanol) and examined under UV light. The detected lipid segments were then separated from the plates into methylation mixture (5% v/v H2SO4 in methanol) for 1 h incubation at 65° C. Then, 1.5 ml petroleum-ether and 3 ml DDW were added to each sample. The upper phase was collected into a new vial and the organic solvent was evaporated with nitrogen. Then 100 μl petroleum-ether was added to each sample for fatty acid analysis in a gas chromatograph model 6890N, equipped with a flame-ionization detector and DB-23 capillary silica (0.25-μm film; Agilent Technology, Wilmington, DE). The analysis was performed according to a protocol established as described in [18]. Peaks were identified with Chemstation software (Agilent Technology). The concentrations of fatty acids are given as molar percentages of the total molar sum of the identified fatty acids. Fatty acids were classified according to chemical characteristics such as double bonds and carbon-chain length.

mammary epithelial cells [2] = test: Lipid droplet number and size in primary mammary epithelial cells incubated 24 h with fixed progesterone concentrations (Nile red/DAPI fluorescence microscopy)
Experimental: Epithelial cells were isolated for mammary biopsies according to the method described in [3]. Cells were incubated for 24 h with 0, 1, 5, and 20 ng/ml progesterone. Cells were then fixed with 4% paraformaldehyde and nucleus and lipid droplets were stained with Dapi and Nile red (Sigma Aldrich, Israel), respectively. Four slides were prepared for each treatment and were visualized with an Olympus BX40 fluorescence microscope equipped with an Olympus DP73 digital camera using CellSens Entry software version 1.7. The lipid droplets of 6-10 cells on each slide were counted and measured using ImageJ software. The experiment was repeated twice. For the in-vitro study, primary culture of MEC was performed according to a protocol established described in [1]. Briefly, mammary tissue was collected from lactating cows in a commercial slaughterhouse and immediately transferred to ice-cold growth medium with 1000 U/ml penicillin, 1 mg/ml streptomycin, 2.5 μg/ml amphotericin mixture, and 0.02 mg/ml heparin. Mammary tissue was digested in medium with 1 mg/ml collagenase, 1 mg/ml hyaluronidase and 0.02 mg/ml heparin, for 3 h at 37° C. After incubation, the suspension was filtered through a metal mesh (250 μm). Sediments were treated with trypsin-EDTA solution and filtered through a 100-μm cell strainer (BD Falcon, Bedford, MA). Then, the cells were grown in plastic culture dishes with DMEM/F12 supplemented with 10% (w-/v) fetal bovine serum, 100 U/ml penicillin, 100 μg/ml streptomycin, 0.25 μg/ml amphotericin B, 1 μg/ml insulin and […] hydrocortisone. The medium was changed every 48 h. To examine the effect of progesterone on MFG formation, secretion and size, the culture medium was supplemented with very low-density lipoprotein (VLDL) and progesterone at different concentrations (0, 1, 5 and 20 ng/ml). Progesterone concentrations were based on those found in the plasma during the luteal and follicular phases in vivo. After 24 h, cells were either fixed for lipid droplet size analysis (detailed below (or harvested with trypsin (0.05% w/v), sedimented by centrifugation, and washed with 0.9 gr/L NaCl. For lipid extraction and analysis, 150,000 MEC were plated in a 60-mm plastic dish. For Nile red fluorescence staining, 50,000 MEC were plated in a 6-well plate on glass cover slips. After 24 h incubation, the culture medium was replaced with DMEM/F12 without serum, containing 0.15% (w/v) free fatty acids-free BSA and insulin (1 μg/ml), hydrocortisone (0.5 μg/ml) and prolactin (1 μg/ml). Cells were incubated for 48 h to induce milk lipid and protein synthesis. Cells were grown on glass cover slips, washed three times with phosphate buffered saline (PBS) and fixed with 4% paraformaldehyde in PBS for 20 min at room temperature. Then the cells were washed four times with PBS, stained with Nile red (200 nM) and incubated for 15 min. Cover slips were then washed three times with PBS and stained with DAPI for 5 min. Cover slips were washed four more times with PBS and mounted on a slide with fluorescent mounting medium (Dako North America Inc., Carpinteria, CA). The slides were visualized under an Olympus BX40 fluorescence microscope equipped with an Olympus DP73 digital camera using CellSens Entry software (version 1.7, Olympus). Lipid droplet diameter was measured using ImageJ software (version 1.48, NIH, Bethesda, MD). Lipid droplet diameter was divided into three size categories: small (<1 μm), medium (1 μm<x<2 μm) and large (>2 μm).

mammary epithelial cells [3] = test: Increasing or decreasing progesterone concentrations with or without VLDL in the culture medium: lipid droplet number and cellular phenotype
Experimental: To determine whether the effect of progesterone on lipid droplet size is mediated by the presence of VLDL, a b-factorial experiment was performed. MEC were cultured with increasing or decreasing progesterone concentrations in the presence or absence of VLDL in the culture medium. This study was aimed to provide indirect evidence of lipoprotein lipase (LPL) activity, acting on VLDL and providing the MEC with exogenous, preformed fatty acids. After 48 h of incubation, cells were fixed and stained with Nile red and intracellular lipid droplet size was determined. Cells were grown on glass cover slips, washed three times with phosphate buffered saline (PBS) and fixed with 4% paraformaldehyde in PBS for 20 min at room temperature. Then the cells were washed four times with PBS, stained with Nile red (200 nM) and incubated for 15 min. Cover slips were then washed three times with PBS and stained with DAPI for 5 min. Cover slips were washed four more times with PBS and mounted on a slide with fluorescent mounting medium (Dako North America Inc., Carpinteria, CA). The slides were visualized under an Olympus BX40 fluorescence microscope equipped with an Olympus DP73 digital camera using CellSens Entry software (version 1.7, Olympus). Lipid droplet diameter was measured using ImageJ software (version 1.48, NIH, Bethesda, MD). Lipid droplet diameter was divided into three size categories: small (<1 μm), medium (1 μm<x<2 μm) and large (>2 μm).

mammary epithelial cells [4] = test: Lipid droplet number and size in primary mammary epithelial cells exposed 48 h to increasing or decreasing progesterone concentrations
Experimental: The effect of progesterone concentration pattern during the estrous cycle on lipid droplet size was also tested. Primary mammary epithelial cells were exposed for 48 h to either increasing (0.75, 2.5 and 5 ng/ml) progesterone concentrations or decreasing (5, 2.5 and 0.75 ng/ml) progesterone concentrations. The concentrations were increased or decreased at specific times to reflect the progesterone pattern during the increasing and decreasing phases of the estrus cycle, i.e. the cells were exposed to increasing concentrations of 0.75, 2.5 and 5 ng/ml progesterone at 0, 17 and 28 h, respectively and cells were exposed to decreasing concentrations of 5, 2.5 and 0.75 ng/ml progesterone at 0, 28 and 34 h, respectively. Cells were then fixed and stained with nile-red. Four slides were prepared for each treatment and lipid droplets were counted and measured under fluorescence microscope. The experiment was repeated twice.
For the in-vitro study, primary culture of MEC was performed according to a protocol established described in [1]. Briefly, mammary tissue was collected from lactating cows in a commercial slaughterhouse and immediately transferred to ice-cold growth medium with 1000 U/ml penicillin, 1 mg/ml streptomycin, 2.5 μg/ml amphotericin mixture, and 0.02 mg/ml heparin. Mammary tissue was digested in medium with 1 mg/ml collagenase, 1 mg/ml hyaluronidase and 0.02 mg/ml heparin, for 3 h at 37° C. After incubation, the suspension was filtered through a metal mesh (250 μm). Sediments were treated with trypsin-EDTA solution and filtered through a 100-μm cell strainer (BD Falcon, Bedford, MA). Then, the cells were grown in plastic culture dishes with DMEM/F12 supplemented with 10% (w-/v) fetal bovine serum, 100 U/ml penicillin, 100 μg/ml streptomycin, 0.25 μg/ml amphotericin B, 1 μg/ml insulin and […] hydrocortisone. The medium was changed every 48 h.
To determine whether the absolute progesterone concentration or its pattern (i.e., increasing or decreasing) affects MFG, cells were treated for 48 h with increasing doses of progesterone: 0.75, 2.5 and 5 ng/ml. The culture medium was replaced after 11, 17, and 20 h, respectively, aimed to mimic the in-vivo luteal phase. The decreasing phase consisted of exposure to 5, 2.5 and 0.75 ng/ml progesterone. Culture medium was replaced after 8, 12 and 28 h, respectively, to mimic the follicular phase.
Cells were grown on glass cover slips, washed three times with phosphate buffered saline (PBS) and fixed with 4% paraformaldehyde in PBS for 20 min at room temperature. […] The slides were visualized under an Olympus BX40 fluorescence microscope equipped with an Olympus DP73 digital camera using CellSens Entry software (version 1.7, Olympus). Lipid droplet diameter was measured using ImageJ software (version 1.48, NIH, Bethesda, MD). […]

mammary epithelial cells [5] = test: Cellular triglyceride and phospholipid content and composition by HPLC-ELSD after 24 h progesterone
Experimental: To examine the effect of progesterone on MFG formation, secretion and size, the culture medium was supplemented with very low-density lipoprotein (VLDL) and progesterone at different concentrations (0, 1, 5 and 20 ng/ml). Progesterone concentrations were based on those found in the plasma during the luteal and follicular phases in vivo. After 24 h, cells were either fixed for lipid droplet size analysis (detailed below (or harvested with trypsin (0.05% w/v), sedimented by centrifugation, and washed with 0.9 gr/L NaCl.
For lipid extraction and analysis, 150,000 MEC were plated in a 60-mm plastic dish. For Nile red fluorescence staining, 50,000 MEC were plated in a 6-well plate on glass cover slips. After 24 h incubation, the culture medium was replaced with DMEM/F12 without serum, containing 0.15% (w/v) free fatty acids-free BSA and insulin (1 μg/ml), hydrocortisone (0.5 μg/ml) and prolactin (1 μg/ml). Cells were incubated for 48 h to induce milk lipid and protein synthesis.
as §1
High-pressure liquid chromatography (HPLC) was performed in an HPLC 1200 (Agilent Technology) equipped with evaporative light-scattering detector. Tg, cholesterol and PL were identified using external standards (Sigma Aldrich). Quantification was performed against external standard curves and expressed as μg/106 live cells or as weight % of the total PL (μg) in the sample. The number of live cells was determined with a hemocytometer after Trypan blue staining.

## CC(=O)[C@H]1CC[C@H]2[C@@H]3CCC4=CC(=O)CC[C@]4(C)[C@H]3CC[C@]12C [progesterone]
Mammary epithelial cells [1]; 1 ng/ml progesterone
  distribution of stearic acid (C18:0) between Tg and PL: higher in the PL compartment; also recorded: found primarily in the membrane
Mammary epithelial cells [1]; 5 ng/ml progesterone
  distribution of stearic acid between Tg and membrane: mostly incorporated into the Tg
Mammary epithelial cells [1]; 5 ng/ml progesterone, P<0.05
  concentration of lignoceric acid (C24:0), Tg vs PL: higher in the PL compartment
Mammary epithelial cells [2]; 0, 1 or 20 ng/ml progesterone, 24 h
  proportion of large droplets (>1 μm): ≤ 20%
Mammary epithelial cells [2]; 5 ng/ml progesterone, 24 h
  proportion of droplets larger than 1 μm: over 40%
Mammary epithelial cells [2]; 5 ng/ml progesterone, 24 h, vs control
  number of lipid droplets: did not differ from the control
Mammary epithelial cells [2]; 20 ng/ml progesterone, 24 h
  rate of large droplets (>1 μm): 6.5%
Mammary epithelial cells [2]; 1 and 5 ng/ml progesterone, 24 h, relative to control (0 ng/ml), FIG. 3
  number of large lipid droplets (>1 μm) per cell: higher number of large lipid droplets
Mammary epithelial cells [2]; 1 and 5 ng/ml relative to 20 ng/ml progesterone, FIG. 4, P<0.0001
  proportion of large lipid droplets (X≥1 μm): higher
Mammary epithelial cells [2]; 1 or 20 ng/ml progesterone, 24 h, vs control (no progesterone), P<0.0001
  number of lipid droplets: 3.5 fold
Mammary epithelial cells [3]; absence of VLDL
  differences in lipid droplet number and cellular phenotype between increasing and decreasing progesterone: no differences were found
Mammary epithelial cells [3]; decreasing progesterone concentration model with VLDL, P<0.0001
  increase in MEC with large lipid droplets (>1 μm): 4 fold
Mammary epithelial cells [3]; increasing progesterone concentration model with VLDL
  increase in proportion of MEC with small lipid droplets (<1 μm): 2.4 fold
Mammary epithelial cells [3]; increasing progesterone concentration with VLDL vs other treatments, FIG. 20B, P<0.0001
  average number of lipid droplets per field: Highest number of lipid droplets
Mammary epithelial cells [4]; decreasing ('down') compared to increasing ('up') progesterone concentrations, 48 h, FIG. 6, P=0.03
  proportion of large lipid droplets (>2 μm) of the total number of lipid droplets: 2 fold
Mammary epithelial cells [4]; increasing (0.75, 2.5, 5 ng/ml, 'up') relative to decreasing (5, 2.5, 0.75 ng/ml, 'down') progesterone, 48 h, FIG. 5, P<0.0001
  increase in the number of lipid droplets: 5.5 fold
Mammary epithelial cells [4]; increasing progesterone concentration 'compared to the increasing progesterone pattern' (so in the source), P<0.0001
  increase in the large lipid droplets: 3 fold
Mammary epithelial cells [4]; increasing vs decreasing progesterone, FIG. 19C
  large lipid droplet phenotype (cells with droplets x>1 μm): only visualized in cells treated with increasing progesterone levels
Mammary epithelial cells [5]; 0, 1, 5 and 20 ng/ml progesterone, 24 h
  membrane PL composition (PI, PE, PS, PC, SM): did not affect
Mammary epithelial cells [5]; 0, 1, 5 and 20 ng/ml progesterone, 24 h, FIG. 17A
  concentration of Tg (cellular triglyceride content): not affected by progesterone
Mammary epithelial cells [5]; 1 ng/ml compared to 0, 5 and 20 ng/ml progesterone, 24 h, P<0.05
  increase in concentration of the measured PL: approximately 1.3 fold
Mammary epithelial cells [5]; 5 ng/ml progesterone, 24 h, P<0.05
  PL amount: tended to decrease
Mammary epithelial cells [5]; progesterone 24 h, apparently the 1 ng/ml treatment, P<0.05
  PC concentration (elevated): 20 μg/106 cells

— US12504393B2, “Method and system for determining the progesterone-associated physiological state of lactating cows” (Yissum Research Development Company of the Hebrew …, priority 2020, dated 2025)
